Drawing on patent US20200360531A1, “ANTIBODY DRUG CONJUGATES (ADCS) WITH NAMPT INHIBITORS” (Bayer Aktiengesellschaft, priority 2018, published 2020), this text covers IC50 for 16 compounds.

The target in one assay is T1, human NAMPT (Homo sapiens, UniProt P43490).
T1 construct: N-terminally His6-tagged recombinant full length human NAMPT; His6 (N); made in house; host or cells: E. coli
In words: NAMPT biochemical assay (hNAMPT IC50), cascade assay with NMNAT1 and NAD/NADH-Glo detection. The settings on record: Table 2; replicate values on separate lines. The source says:
NAMPT Biochemical Assay (hNAMPT IC50)
Nicotinamide phosphoribosyltransferase (NAMPT) inhibitory activity of compounds of the present invention was quantified employing a cascade assay as described in the following paragraphs. The assay couples the conversion of nicotinamide (NAM) to nicotinamide mononucleotide (NMN) by NAMPT with the conversion of NMN to […] adenine dinucleotide (NAD^+) by nicotinamide mononucleotide adenylyltransferase 1 (NMNAT1) and the subsequent quantification of the generated NAD^+ by a commercial detection kit (NAD/NADH-Glo™ Assay from Promega, #G9072).
N-terminally His6-tagged recombinant full length human NAMPT and N-terminally His6-tagged recombinant full length human NMNAT1, both expressed in E. coli and purified via Ni-NTA-affinity chromatography and consecutive size exclusion chromatography, were used as enzymes.
For the assay 50 nl of a 100 fold concentrated solution of the test compound in DMSO was pipetted into a white low volume 384 well microtiter plate (Greiner Bio-One, Frickenhausen, Germany), 2.5 μl of a solution of NAMPT in aqueous NMNAT1-containing assay buffer [50 mM Tris/HCl pH 7.5, 12 mM MgCl2, 0.6 mM adenosine-tri-phosphate (ATP), 1 nM NMNAT1, 0.02% (w/v) bovine serum albumin (Sigma-Aldrich #P7906), 0.001% (v/v) Tween-20 (Sigma-Aldrich #P7949)] were added and the mixture was incubated for 15 min at 22° C. to allow pre-binding of the test compounds to the enzyme before the start of the enzyme reaction. Then the reaction was started by the addition of 2.5 μl of a solution of NAM (300 nM=>final conc. in the 5 μl assay volume is 150 nM, Sigma-Aldrich #^47865) and 5-phosphorylribose-1-pyrophosphate pentasodium salt (PRPP, 1.2 μM=>final conc. in the 5 μl assay volume is 0.6 μM, Sigma-Aldrich P8296) in assay buffer and the resulting mixture was incubated for a reaction time of 20 min at 22° C. The concentration of NAMPT was adjusted depending of the activity of the enzyme lot and was chosen appropriate to have the assay in the linear range, typical final concentration in the 5 μl assay volume was 0.16 nM.
The resulting mixture was incubated 2 h at 22° C. to allow a steady-state of the detection system. Subsequently the generated luminescence was measured in a suitable luminescence reader, e.g. a Viewlux™ (Perkin-Elmer), and taken as a measure for the generated NAD^+.

The test system of a further assay is MDA-MB-453. In words: Cell proliferation assay, Cell Titer Glo (CTG) method, MDA-MB-453. The class given is cell-based. How it is done: (§1) Cell Proliferation Assay for Nampt-ADCs and Nampt-SMOLs
(§2) Cell Titer Glo (CTG) Method
(§3) To this end, 75 μL per well CTG solution (Promega, catalog #G755B and G756B) was added to cells in sister plates, incubated for 10 min, and luminescence was measured on a VICTOR V instrument (Perkin Elmer). After incubation for either 72 or 96 hrs (Table 1) in the presence of test compounds, 100 μl per well CTG solution was added to all test wells, incubated for 10 min and luminescence was measured on a VICTOR V instrument. […] The DRC software is a Biobook Spreadsheet that was developed by Bayer AG and Bayer Business Services on the IDBS E-Workbook Suite platform (IDBS: ID Business Solutions Ltd., Guildford, UK).
A general note: ATP-based viability assays read luminescence as a measure of living cells.

The next assay has as its system A549 C4.4a B4. In words: Cell proliferation assay, Cell Titer Glo (CTG) method, A549 C4.4a B4. The class given is cell-based, human. Here is the method: as §1, §2, §3
The test system of the next assay is THP-1. In words: Cell proliferation assay, Cell Titer Glo (CTG) method, THP-1. In kind it is cell-based, human. Conditions: Homo sapiens, THP-1; Table 2; 72 h. Here is the method: as §1, §2, §3
The next assay concerns U251 MG. In words: Cell proliferation assay, Cell Titer Glo (CTG) method, U251 MG. The class given is cell-based. The settings on record: Homo sapiens, U-251, 72 h, Table 2. Here is the method: as §1, §2, §3
Where [1] appears, read: Homo sapiens, MDA-MB-453, 72 h, Table 2, read-out: MDA-MB-453 72 h IC50.
Setting [2] is: Homo sapiens, A549, 72 h, Table 2, read-out: A549 C4.4a B4 72 h IC50.
[3] abbreviates: Table 2, 72 h, read-out: A549 C4.4a B4 72 h IC50.

pIC50: −log10 of the molar value. Values joined by “and” are separate entries in the source; they are usually repeats but may differ in a detail not shown here. Equal values may be shown once. Read-outs that look alike come from different tables or passages of the source. A value given as a limit tells only on which side of the number the result lay.

T1 sequence (P43490 whole entry): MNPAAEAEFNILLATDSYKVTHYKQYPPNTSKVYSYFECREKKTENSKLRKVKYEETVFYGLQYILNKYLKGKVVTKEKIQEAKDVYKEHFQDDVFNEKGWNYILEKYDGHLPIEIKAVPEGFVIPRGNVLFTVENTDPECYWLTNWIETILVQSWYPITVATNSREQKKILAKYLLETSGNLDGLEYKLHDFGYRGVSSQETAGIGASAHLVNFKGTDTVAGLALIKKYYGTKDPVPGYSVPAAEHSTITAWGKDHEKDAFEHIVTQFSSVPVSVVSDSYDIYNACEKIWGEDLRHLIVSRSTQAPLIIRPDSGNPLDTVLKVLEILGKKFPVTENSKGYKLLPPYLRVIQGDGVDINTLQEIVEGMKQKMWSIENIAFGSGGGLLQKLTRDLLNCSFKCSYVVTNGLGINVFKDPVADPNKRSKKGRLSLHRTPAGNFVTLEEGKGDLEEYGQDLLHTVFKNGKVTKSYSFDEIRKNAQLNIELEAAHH

As for `NCCCCN1N=C(c2ccc(NC(=O)N3Cc4ccncc4C3)cc2)CC(c2cccc3ncccc23)C1=O` (stereo not drawn) [Example 2, N-{4-[1-(4-Aminobutyl)-6-oxo-5-(quinolin-5-yl)-1,4,5,6-tetrahydropyridazin-3-yl]phenyl}-1,3-dihydro-2H-pyrrolo[3,4-c]pyridine-2-carboxamide], the pIC50 on human NAMPT is 9.46 and 9.44.
On to `O=C(Nc1ccc(-c2cc(-c3ccc4[nH]ncc4c3)c(=O)n(CC(F)(F)F)n2)cc1)N1Cc2ccncc2C1` [Example 22, N-{4-[5-(1H-indazol-5-yl)-6-oxo-1-(2,2,2-trifluoroethyl)-1,6-dihydropyridazin-3-yl]phenyl}-1,3-dihydro-2H-pyrrolo[3,4-c]pyridine-2-carboxamide], for which the pIC50 in the assay with MDA-MB-453 (setting [1]) was more than 10.52; against human NAMPT, 9.95 and 9.84; in the assay on A549 C4.4a B4 (setting [2]) it was 8.31.
Regarding `NCCCCCCN1N=C(c2ccc(NC(=O)N3Cc4ccncc4C3)cc2)CC(c2ccc3cccnc3c2)C1=O` (stereo not drawn) [Example 45, N-{4-[1-(6-Aminohexyl)-6-oxo-5-(quinolin-7-yl)-1,4,5,6-tetrahydropyridazin-3-yl]phenyl}-1,3-dihydro-2H-pyrrolo[3,4-c]pyridine-2-carboxamide hydrogen chloride], the pIC50 was 9.65 and 9.62 and 9.56 and 9.46 on human NAMPT; 7.49 in the assay on A549 C4.4a B4 (setting [2]); 7.30 with A549 C4.4a B4 (setting [3]).
For “[(32S,39S)-39-carboxy-32-({6-[(5S)-3-{4-[(1,3-dihydro-2H-pyrrolo[3,4-c]pyridine-2-carbonyl)amino]phenyl}-6-oxo-5-(quinolin-5-yl)-5,6-dihydropyridazin-1(4H)-yl]hexyl}carbamoyl)-26,34,37-trioxo-2,5,8,11,14,17,20,23-octaoxa-27,33,36-triazanonatriacontan-39-yl]sulfanediyl [Example 36Db]”, the pIC50 in the assay with MDA-MB-453 (Table 3 (ADCs), DSMZ cells, 72 h, read-out: MDA-MB-453 DSMZ 72 h IC^50) was 8.14; in the assay on A549 C4.4a B4 (Table 3 (ADCs), 72 h, read-out: A549 C4.4a 72 h IC^50) it was 8.50.
Take `O=C(Nc1ccc(C2=NNC(=O)C(c3cccc4ncccc34)(C(F)(F)F)C2)cc1)N1Cc2ccncc2C1` (racemic) [Example 14, N-{4-[6-oxo-5-(quinolin-5-yl)-5-(trifluoromethyl)-1,4,5,6-tetrahydropyridazin-3-yl]phenyl}-1,3-dihydro-2H-pyrrolo[3,4-c]pyridine-2-carboxamide]: at human NAMPT, the pIC50 was 9.50 and 9.41.
In the case of “N-[2 or 3-{[(2R)-2-amino-2-carboxyethyl]sulfanyl}-3-carboxypropanoyl]glycyl-N-{6-[3-{4-[(1,3-dihydro-2H-pyrrolo[3,4-c]pyridine-2-carbonyl)amino]phenyl}-6-oxo-5-(quinolin-5-yl)-5,6-dihydropyridazin-1(4H)-yl]hexyl}-N^6-(26-oxo-2,5,8,11,14,17,20,23-octaoxahexacosan-26-yl)-L-lysinamide [Example 36M]”, the pIC50 is 7.74 with MDA-MB-453 (Table 2, 72 h, read-out: MDA-MB-453 72 h IC50); 8.99 and 8.98 against human NAMPT; 6.52 in the assay with A549 C4.4a B4 (setting [3]).
As to `N[C@@H](CSC1CC(=O)N(CCCCCC(=O)NCCCCCCn2nc(-c3ccc(NC(=O)N4Cc5ccncc5C4)cc3)cc(-c3cccc4ncccc34)c2=O)C1=O)C(=O)O` (stereo partly drawn) [Example 29M, S-{1-[6-({6-[3-{4-[(1,3-Dihydro-2H-pyrrolo[3,4-c]pyridine-2-carbonyl)amino]phenyl}-6-oxo-5-(quinolin-5-yl)pyridazin-1(6H)-yl]hexyl}amino)-6-oxohexyl]-2,5-dioxopyrrolidin-3-yl}-L-cysteine], the pIC50 against human NAMPT is 9.36 and 9.20.
Turning to `NCCCCn1nc(-c2ccc(NC(=O)N3Cc4ccncc4C3)cc2)cc(-c2cccc3ncccc23)c1=O` [Example 5, N-{4-[1-(4-Aminobutyl)-6-oxo-5-(quinolin-5-yl)-1,6-dihydropyridazin-3-yl]phenyl}-1,3-dihydro-2H-pyrrolo[3,4-c]pyridine-2-carboxamide], the pIC50 on human NAMPT was 9.83 and 9.75.
In the case of “2 or 3-{[(2R)-2-Amino-2-carboxyethyl]sulfanyl}-4-{[2-({6-[3-{4-[(1,3-dihydro-2H-pyrrolo[3,4-c]pyridine-2-carbonyl)amino]phenyl}-6-oxo-5-(quinolin-5-yl)pyridazin-1(6H)-yl]hexyl}amino)-2-oxoethyl]amino}-4-oxobutanoic Acid [Example 31M]”, the pIC50 at human NAMPT was 9.59 and 9.51.
As for `NCCCCCCN1N=C(c2ccc(NC(=O)N3Cc4ccncc4C3)cc2)CC(c2cccc3ncccc23)(C(F)(F)F)C1=O` (stereo not drawn) [Example 15, N-{4-[1-(6-Aminohexyl)-6-oxo-5-(quinolin-5-yl)-5-(trifluoromethyl)-1,4,5,6-tetrahydropyridazin-3-yl]phenyl}-1,3-dihydro-2H-pyrrolo[3,4-c]pyridine-2-carboxamide], the pIC50 in the assay on MDA-MB-453 (setting [1]) is more than 10.52; on human NAMPT, 9.51 and 9.44.
In the case of `O=C(Nc1ccc(-c2cc(-c3cccc4[nH]cnc34)c(=O)[nH]n2)cc1)N1Cc2ccncc2C1` [Example 26, N-{4-[5-(1H-Benzimidazol-4-yl)-6-oxo-1,6-dihydropyridazin-3-yl]phenyl}-1,3-dihydro-2H-pyrrolo[3,4-c]pyridine-2-carboxamide], the pIC50 is more than 10.52 with MDA-MB-453 (setting [1]); 9.78 and 9.68 on human NAMPT; 6.95 in the assay on A549 C4.4a B4 (setting [2]).
Turning to `Cc1nnc(C2CC(c3ccc(NC(=O)N4Cc5ccncc5C4)cc3)=NN(CCCCCCN)C2=O)o1` (stereo not drawn) [Example 11, N-{4-[1-(6-Aminohexyl)-5-(5-methyl-1,3,4-oxadiazol-2-yl)-6-oxo-1,4,5,6-tetrahydropyridazin-3-yl]phenyl}-1,3-dihydro-2H-pyrrolo[3,4-c]pyridine-2-carboxamide], the pIC50 with THP-1 was more than 11.52; with U251 MG it was 8.55; at human NAMPT, 9.50 and 9.42; in the assay with A549 C4.4a B4 (setting [2]), less than 6.52.
Regarding `O=C1NN=C(c2ccc(NC(=O)N3Cc4ccncc4C3)cc2)CC1c1cccc2ncccc12` (stereo not drawn) [Example 1, N-{4-[6-Oxo-5-(quinolin-5-yl)-1,4,5,6-tetrahydropyridazin-3-yl]phenyl}-1,3-dihydro-2H-pyrrolo[3,4-c]pyridine-2-carboxamide], the pIC50 in the assay with THP-1 was more than 11.52; at human NAMPT, 8.97 and 8.92 and 8.90 and 8.86.
On to `NCCCCCCN1N=C(c2ccc(NC(=O)N3Cc4ccncc4C3)cc2)CC(c2cccc3ncccc23)C1=O` (stereo not drawn) [Example 3, N-{4-[1-(6-Aminohexyl)-6-oxo-5-(quinolin-5-yl)-1,4,5,6-tetrahydropyridazin-3-yl]phenyl}-1,3-dihydro-2H-pyrrolo[3,4-c]pyridine-2-carboxamide], for which, at human NAMPT, the pIC50 was 9.68 and 9.67.
On to `O=C(Nc1ccc(C2=NNC(=O)[C@@](c3cccc4ncccc34)(C(F)(F)F)C2)cc1)N1Cc2ccncc2C1` [Example 12, N-{4-[(5R)-6-oxo-5-(quinolin-5-yl)-5-(trifluoromethyl)-1,4,5,6-tetrahydropyridazin-3-yl]phenyl}-1,3-dihydro-2H-pyrrolo[3,4-c]pyridine-2-carboxamide], for which the pIC50 is more than 11.52 in the assay with THP-1; more than 10.52 in the assay with U251 MG; 9.27 and 9.26 at human NAMPT; 9.33 in the assay with A549 C4.4a B4 (setting [2]).
Regarding `O=C(Nc1ccc(-c2cc(-c3cccc4ncccc34)c(=O)[nH]n2)cc1)N1Cc2ccncc2C1` [Example 4, N-{4-[6-Oxo-5-(quinolin-5-yl)-1,6-dihydropyridazin-3-yl]phenyl}-1,3-dihydro-2H-pyrrolo[3,4-c]pyridine-2-carboxamide], the pIC50 with THP-1 was 10.77; in the assay on U251 MG, 9.84; at human NAMPT, 8.94 and 8.91; in the assay on A549 C4.4a B4 (setting [2]), less than 6.52.
